The text below walks through data of US12692269B2, “Therapeutic compounds” (Genentech, Inc., priority 2019, dated 2026).

Common to all, as to type: binding
One test has as its target TEAD1 YAP50-100 (Homo sapiens, UniProt P28347). The test is described as follows: TEAD1-YAP HTRF (TR-FRET) protein-protein interaction assay. As to conditions: TEAD1, YAP peptide 50-100, HTRF; for EC50: read-out: TEAD1 YAP50-100 HTRF combined: EC50. In outline:
(§1)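 Read-out is the TR-FRET 665 nm/615 nm ratio, which falls when compound disrupts TEAD binding to YAP (aa 50-100) or TAZ (aa 13-57) peptide. Eu anti-His-labelled His-TEAD (aa 217-447) saw compound for 30 min, then peptide/streptavidin-XL665 for 60 min, room temperature.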

The target in a further test is TEAD2 YAP50-100 (Homo sapiens, UniProt Q15562). Nature of the test: TEAD2-YAP HTRF (TR-FRET) protein-protein interaction assay. As to conditions: TEAD2, YAP peptide 50-100, HTRF; for EC50: read-out: TEAD2 YAP50-100 HTRF combined: EC50. The method, boiled down:
as §1
(In TR-FRET formats the signal depends on donor and acceptor labels being close together.)

The target of the next test is TEAD3 YAP50-100 (Homo sapiens, UniProt Q99594). The test is described as follows: TEAD3-YAP HTRF (TR-FRET) protein-protein interaction assay. The following applies: TEAD3, YAP peptide 50-100, HTRF; for EC50: read-out: TEAD3 YAP50-100 HTRF combined: EC50. The method, boiled down: as §1
TEAD3 YAP50-100, sequence (Q99594 173-435 limits assumed): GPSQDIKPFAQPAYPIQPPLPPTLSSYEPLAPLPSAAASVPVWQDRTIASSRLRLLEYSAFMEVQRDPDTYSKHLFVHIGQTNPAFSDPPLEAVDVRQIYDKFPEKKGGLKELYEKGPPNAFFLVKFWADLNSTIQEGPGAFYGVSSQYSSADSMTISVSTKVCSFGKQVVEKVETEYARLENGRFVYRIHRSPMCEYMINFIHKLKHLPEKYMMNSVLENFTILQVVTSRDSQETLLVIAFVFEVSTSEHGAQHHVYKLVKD
Another test concerns the target TEAD4 YAP50-100 (Homo sapiens, UniProt Q15561). The test is described as follows: TEAD4-YAP HTRF (TR-FRET) protein-protein interaction assay. The following applies: TEAD4, YAP peptide 50-100, HTRF; for EC50: read-out: TEAD4 YAP50-100 HTRF combined: EC50. In outline: as §1
In test [1] the target is TEAD1 TAZ (amino acids 13-57) (Homo sapiens, UniProt P28347). The test is described as follows: TEAD1-TAZ HTRF (TR-FRET) protein-protein interaction assay. As to conditions: for TEAD1 TAZ HTRF combined: Max % Inhibition: TEAD1, TAZ peptide; for EC50: TEAD1-TAZ HTRF, TR-FRET 665 nm/615 nm, read-out: TEAD1 TAZ HTRF combined: EC50. The method, boiled down:
as §1

The target in test [2] is TEAD2 TAZ (amino acids 13-57) (Homo sapiens, UniProt Q15562). Nature of the test: TEAD2-TAZ HTRF (TR-FRET) protein-protein interaction assay. The following applies: for TEAD2 TAZ HTRF combined: Max % Inhibition: TEAD2, TAZ peptide; for EC50: TEAD2-TAZ HTRF, TR-FRET 665 nm/615 nm, read-out: TEAD2 TAZ HTRF combined: EC50. In outline: as §1
TEAD2 TAZ (amino acids 13-57), sequence (Q15562 217-447): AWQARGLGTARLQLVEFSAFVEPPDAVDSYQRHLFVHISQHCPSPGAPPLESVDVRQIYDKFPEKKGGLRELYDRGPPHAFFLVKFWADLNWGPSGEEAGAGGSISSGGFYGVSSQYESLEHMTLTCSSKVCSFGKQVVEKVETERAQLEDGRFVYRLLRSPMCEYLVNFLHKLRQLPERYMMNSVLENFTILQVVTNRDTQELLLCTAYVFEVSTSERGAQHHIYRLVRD
Test [3] concerns the target TEAD3 TAZ (amino acids 13-57) (Homo sapiens, UniProt Q99594). Nature of the test: TEAD3-TAZ HTRF (TR-FRET) protein-protein interaction assay. The following applies: for TEAD3 TAZ HTRF combined: Max % Inhibition: TEAD3, TAZ peptide; for EC50: TEAD3-TAZ HTRF, TR-FRET 665 nm/615 nm, read-out: TEAD3 TAZ HTRF combined: EC50. The method, boiled down: as §1
Test [4] addresses TEAD4 TAZ (amino acids 13-57) (Homo sapiens, UniProt Q15561). The test is described as follows: TEAD4-TAZ HTRF (TR-FRET) protein-protein interaction assay. As to conditions: for TEAD4 TAZ HTRF combined: Max % Inhibition: TEAD4, TAZ peptide; for EC50: TEAD4-TAZ HTRF, TR-FRET 665 nm/615 nm, read-out: TEAD4 TAZ HTRF combined: EC50. The method, boiled down: as §1

TEAD4 YAP50-100, sequence (Q15561 217-434 limits assumed): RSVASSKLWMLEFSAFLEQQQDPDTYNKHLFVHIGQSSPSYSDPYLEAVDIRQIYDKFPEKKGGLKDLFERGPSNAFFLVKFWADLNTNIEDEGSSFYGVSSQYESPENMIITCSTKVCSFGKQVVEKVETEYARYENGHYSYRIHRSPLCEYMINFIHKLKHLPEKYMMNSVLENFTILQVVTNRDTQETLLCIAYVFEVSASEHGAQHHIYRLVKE
TEAD4 TAZ (amino acids 13-57), sequence (Q15561 217-434 limits assumed): as above
TEAD3 TAZ (amino acids 13-57), sequence (Q99594 173-435 limits assumed): as the sequence (Q99594 173-435 limits assumed) above
TEAD1 TAZ (amino acids 13-57), sequence (P28347 167-426 limits assumed): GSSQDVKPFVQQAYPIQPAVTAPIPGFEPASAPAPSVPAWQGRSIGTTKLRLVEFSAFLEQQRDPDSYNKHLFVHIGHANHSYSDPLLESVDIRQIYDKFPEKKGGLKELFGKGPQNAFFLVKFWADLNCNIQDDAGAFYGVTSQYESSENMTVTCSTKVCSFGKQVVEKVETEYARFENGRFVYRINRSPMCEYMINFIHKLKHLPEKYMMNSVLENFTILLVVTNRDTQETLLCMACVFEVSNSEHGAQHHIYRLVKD
TEAD1 YAP50-100, sequence (P28347 167-426 limits assumed): as above
TEAD2 YAP50-100, sequence (Q15562 217-447): as the sequence (Q15562 217-447) above

A word on the EC50: it is the concentration giving half of the maximal effect. `O=C(c1c(-c2ncccn2)nn2c(=O)cc(-c3ccc(C4(C5CCCC5)CC4)cc3)[nH]c12)N1CC(CF)C1` [Compound 57, 5-(4-(1-Cyclopentylcyclopropyl)phenyl)-3-(3-(fluoromethyl)azetidine-1-carbonyl)-2-(pyrimidin-2-yl)pyrazolo[1,5-a]pyrimidin-7(4H)-one]: on TEAD1 YAP50-100, the “TEAD1 YAP50-100 HTRF combined: Max % Inhibition” value stood at 56.0% and the EC50 stood at 80 nM. At TEAD2 YAP50-100, the “TEAD2 YAP50-100 HTRF combined: Max % Inhibition” value came out at 51.0% and the concentration giving a half-maximal response (EC50) came to 20 nM. Also, on TEAD3 YAP50-100, the “TEAD3 YAP50-100 HTRF combined: Max % Inhibition” value is given as 53.0% and the EC50 came out at 100 nM. Further, at TEAD4 YAP50-100, the “TEAD4 YAP50-100 HTRF combined: Max % Inhibition” value is 35.0% and the EC50 amounted to 70 nM. Moreover, in test [1], the “TEAD1 TAZ HTRF combined: Max % Inhibition” value amounted to 46.5% and the EC50 was 70 nM. In test [2], the “TEAD2 TAZ HTRF combined: Max % Inhibition” value was 53.5% and the EC50 was determined as 10 nM. Moreover, in test [3], the “TEAD3 TAZ HTRF combined: Max % Inhibition” value is listed as 50.5% and the EC50 came out at 90 nM. In test [4], the “TEAD4 TAZ HTRF combined: Max % Inhibition” value amounted to 54.5% and the 50% effective concentration (EC50) is 60 nM.
For the compound `CCCCc1ccc(-c2cc(=O)n3nc(-c4nccnc4C)c(C(=O)N4CC(CF)C4)c3[nH]2)cc1` [Compound 58, 5-(4-Butylphenyl)-3-(3-(fluoromethyl)azetidine-1-carbonyl)-2-(3-methylpyrazin-2-yl)pyrazolo[1,5-a]pyrimidin-7(4H)-one], on TEAD1 YAP50-100, the “TEAD1 YAP50-100 HTRF combined: Max % Inhibition” value was found to be 71.0% and the EC50 was 40 nM. For the same compound, at TEAD2 YAP50-100, the “TEAD2 YAP50-100 HTRF combined: Max % Inhibition” value worked out at 63.0% and the EC50 turned out to be 10 nM. Further, on TEAD3 YAP50-100, the “TEAD3 YAP50-100 HTRF combined: Max % Inhibition” value is given as 64.5% and the EC50 was determined as 90 nM. Besides, at TEAD4 YAP50-100, the “TEAD4 YAP50-100 HTRF combined: Max % Inhibition” value was 59.0% and the EC50 came to 180 nM. For the same compound, in test [1], the “TEAD1 TAZ HTRF combined: Max % Inhibition” value is given as 70.5% and the EC50 came out at 40 nM. Moreover, in test [2], the “TEAD2 TAZ HTRF combined: Max % Inhibition” value is on record as 66.5% and the EC50 was 10 nM. In addition, in test [3], the “TEAD3 TAZ HTRF combined: Max % Inhibition” value was 58.5% and the EC50 was 100 nM. Besides, in test [4], the “TEAD4 TAZ HTRF combined: Max % Inhibition” value worked out at 68.5% and the EC50 came to 140 nM.
Turning to `Cc1nccnc1-c1nn2c(=O)cc(-c3ccc(C4(F)CCCCC4)cc3)[nH]c2c1C(=O)N1CC(CF)C1` [Compound 59, 5-(4-(1-Fluorocyclohexyl)phenyl)-3-(3-(fluoromethyl)azetidine-1-carbonyl)-2-(3-methylpyrazin-2-yl)pyrazolo[1,5-a]pyrimidin-7(4H)-one], on TEAD1 YAP50-100, the “TEAD1 YAP50-100 HTRF combined: Max % Inhibition” value was 68.0% and the EC50 came to 160 nM. On TEAD2 YAP50-100, the “TEAD2 YAP50-100 HTRF combined: Max % Inhibition” value turned out to be 61.5% and the EC50 amounted to 30 nM. In addition, at TEAD3 YAP50-100, the “TEAD3 YAP50-100 HTRF combined: Max % Inhibition” value is 65.5% and the EC50 was 290 nM. Besides, at TEAD4 YAP50-100, the “TEAD4 YAP50-100 HTRF combined: Max % Inhibition” value amounted to 40.0% and the 50% effective concentration (EC50) came out at 180 nM. For the same compound, in test [1], the “TEAD1 TAZ HTRF combined: Max % Inhibition” value turned out to be 65.5% and the EC50 came to 160 nM. Besides, in test [2], the “TEAD2 TAZ HTRF combined: Max % Inhibition” value is on record as 61.0% and the EC50 worked out at 30 nM. Moreover, in test [3], the “TEAD3 TAZ HTRF combined: Max % Inhibition” value was determined as 59.0% and the EC50 stood at 340 nM. Moreover, in test [4], the “TEAD4 TAZ HTRF combined: Max % Inhibition” value is on record as 42.5% and the EC50 came to 180 nM.
